Drawing on patent US20230219986A1, “NOVEL AMINOPYRIMIDINE EGFR INHIBITOR” (QILU PHARMACEUTICAL CO., LTD., priority 2020, published 2023), this text covers GI50 and IC50 for twelve compounds.

The target in test [1] is Ba/F3 De119/T790M/C797S EGFR triple mutant cell line (Homo sapiens, UniProt P00533, T790M/C797S, cells depend on it, form not given). Put plainly: Cell proliferation inhibition experiment (CellTiter-Glo), Ba/F3 De119/T790M/C797S. It counts as cell-based. The conditions noted are these: Ba/F3 Del19/T790M/C797S EGFR triple mutant cells, 72 hours, Cell Titer-Glo; read-out: Ba/F3 (Del19/T790M/C797S) IC50. On the technique in general: In ATP-based viability assays light output follows the ATP content of the culture.
Ba/F3 De119/T790M/C797S EGFR triple mutant cell line, sequence (P00533 with tags, fused parts or gaps DEL746-750/T790M/C797S, form open): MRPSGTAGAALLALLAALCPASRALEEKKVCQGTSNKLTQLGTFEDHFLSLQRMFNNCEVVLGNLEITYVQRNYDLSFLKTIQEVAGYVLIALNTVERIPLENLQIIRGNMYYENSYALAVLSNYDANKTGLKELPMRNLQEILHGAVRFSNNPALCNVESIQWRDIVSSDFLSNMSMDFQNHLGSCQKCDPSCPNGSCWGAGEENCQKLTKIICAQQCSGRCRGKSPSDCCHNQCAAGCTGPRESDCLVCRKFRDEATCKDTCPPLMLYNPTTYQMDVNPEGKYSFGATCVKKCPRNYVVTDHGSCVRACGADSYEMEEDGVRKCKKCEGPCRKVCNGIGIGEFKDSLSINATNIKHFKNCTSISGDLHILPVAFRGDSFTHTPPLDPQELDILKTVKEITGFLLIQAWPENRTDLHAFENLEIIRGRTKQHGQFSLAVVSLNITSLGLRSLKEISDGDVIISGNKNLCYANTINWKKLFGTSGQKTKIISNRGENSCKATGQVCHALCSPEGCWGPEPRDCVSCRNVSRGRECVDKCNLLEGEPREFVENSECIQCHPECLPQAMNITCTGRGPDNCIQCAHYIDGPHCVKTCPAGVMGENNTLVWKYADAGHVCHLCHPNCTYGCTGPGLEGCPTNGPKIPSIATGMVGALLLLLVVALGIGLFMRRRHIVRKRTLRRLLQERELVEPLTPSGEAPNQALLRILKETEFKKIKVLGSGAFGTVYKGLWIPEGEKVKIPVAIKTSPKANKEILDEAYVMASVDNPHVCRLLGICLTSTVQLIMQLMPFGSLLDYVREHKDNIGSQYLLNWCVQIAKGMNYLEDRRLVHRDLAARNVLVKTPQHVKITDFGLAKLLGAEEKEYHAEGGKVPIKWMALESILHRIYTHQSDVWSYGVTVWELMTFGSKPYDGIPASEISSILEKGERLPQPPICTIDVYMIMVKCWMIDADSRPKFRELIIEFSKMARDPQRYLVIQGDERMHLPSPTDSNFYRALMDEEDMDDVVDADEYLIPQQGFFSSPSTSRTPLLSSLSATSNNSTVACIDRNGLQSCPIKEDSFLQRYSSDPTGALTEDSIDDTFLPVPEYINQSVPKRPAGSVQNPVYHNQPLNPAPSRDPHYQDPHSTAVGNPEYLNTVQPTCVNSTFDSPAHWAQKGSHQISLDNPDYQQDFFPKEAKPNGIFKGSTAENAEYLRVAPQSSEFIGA

The target of test [2] is Ba/F3 L858R/T790M/C797S EGFR triple mutant cell line (Homo sapiens, UniProt P00533, T790M/C797S/L858R, cells depend on it). Put plainly: Cell proliferation inhibition experiment (CellTiter-Glo), Ba/F3 L858R/T790M/C797S. The following applies: 72 hours, Cell Titer-Glo, read-out: Ba/F3 (L858R/T790M/C797S) IC50. The class given is cell-based.
Ba/F3 L858R/T790M/C797S EGFR triple mutant cell line, sequence (P00533 whole entry T790M/C797S/L858R): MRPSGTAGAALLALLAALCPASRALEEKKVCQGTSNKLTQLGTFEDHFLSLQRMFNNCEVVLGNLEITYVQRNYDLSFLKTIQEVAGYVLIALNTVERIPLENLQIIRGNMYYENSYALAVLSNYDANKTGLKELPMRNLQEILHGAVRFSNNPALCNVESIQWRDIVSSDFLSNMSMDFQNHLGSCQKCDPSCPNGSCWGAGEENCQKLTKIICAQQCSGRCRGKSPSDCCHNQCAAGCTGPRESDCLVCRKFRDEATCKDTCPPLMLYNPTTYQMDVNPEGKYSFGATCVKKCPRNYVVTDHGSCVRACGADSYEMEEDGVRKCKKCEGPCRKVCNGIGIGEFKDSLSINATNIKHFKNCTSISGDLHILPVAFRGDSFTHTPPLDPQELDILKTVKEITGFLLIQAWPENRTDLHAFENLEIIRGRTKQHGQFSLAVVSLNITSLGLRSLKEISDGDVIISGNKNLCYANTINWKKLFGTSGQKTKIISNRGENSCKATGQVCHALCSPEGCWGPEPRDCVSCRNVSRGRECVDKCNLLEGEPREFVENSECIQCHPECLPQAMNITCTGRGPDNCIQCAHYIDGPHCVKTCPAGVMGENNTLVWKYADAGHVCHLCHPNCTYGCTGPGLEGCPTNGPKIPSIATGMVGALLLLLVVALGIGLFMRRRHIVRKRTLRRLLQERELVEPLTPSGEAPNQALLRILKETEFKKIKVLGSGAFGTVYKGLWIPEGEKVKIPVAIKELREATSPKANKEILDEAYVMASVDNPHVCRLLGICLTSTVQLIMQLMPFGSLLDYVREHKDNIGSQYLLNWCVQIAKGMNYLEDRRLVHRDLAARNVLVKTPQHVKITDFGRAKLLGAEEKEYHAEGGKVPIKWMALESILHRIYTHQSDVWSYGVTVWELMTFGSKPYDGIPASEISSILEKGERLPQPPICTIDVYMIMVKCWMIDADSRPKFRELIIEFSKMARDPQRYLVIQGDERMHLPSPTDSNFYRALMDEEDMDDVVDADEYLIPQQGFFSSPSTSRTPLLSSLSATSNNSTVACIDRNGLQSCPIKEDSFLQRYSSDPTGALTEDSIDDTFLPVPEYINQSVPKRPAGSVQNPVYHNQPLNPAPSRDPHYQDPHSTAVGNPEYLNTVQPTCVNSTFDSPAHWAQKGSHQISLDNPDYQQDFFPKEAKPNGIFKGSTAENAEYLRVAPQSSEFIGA
The next test addresses T1, wild-type EGFR (Homo sapiens, UniProt P00533).
T1 construct: purchased Signalchem
Put plainly: Enzymology experiment in vitro (HTRF/FRET kinase activity), wild-type EGFR. It counts as biochemical. The conditions noted are these: HTRF KinEASE-TK, read-out: EGFR (WT) IC50. Put shortly:
(§1)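 Kinase reaction run 40 min at room temperature with peptide and ATP after a 10 min compound–enzyme preincubation. Phosphorylation read as HTRF signal after 1 h with Eu³⁺ antibody, XL665-streptavidin and EDTA (Cisbio KinEASE-TK).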
(TR-FRET usually uses a lanthanide donor and a delayed reading to cut background.)

For test [3], the system named is EGFR wild-type cell line A431. The test is described as follows: Cell proliferation inhibition experiment (CellTiter-Glo), A431. It counts as cell-based. The conditions noted are these: Homo sapiens, A-431, 72 h, A431 cells, Cell Titer-Glo, read-out: A431 EGFR WT IC50. Put shortly: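 Luminescent CellTiter-Glo readout, 30 min at room temperature, after 72 h compound exposure at 37° C., 5% CO2 with 0.1% DMSO final. EGFR wild-type A431 cells were seeded at 800 per well and grown 24 h before dosing. IC50 derived from the dose-response.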

The target in test [4] is T2, L858R/T790M/C797S triple mutant EGFR (Homo sapiens, UniProt P00533, C797S/L858R/T790M).
T2 construct: purchased Signalchem
T2 sequence (P00533 25-1210 T790M/C797S/L858R): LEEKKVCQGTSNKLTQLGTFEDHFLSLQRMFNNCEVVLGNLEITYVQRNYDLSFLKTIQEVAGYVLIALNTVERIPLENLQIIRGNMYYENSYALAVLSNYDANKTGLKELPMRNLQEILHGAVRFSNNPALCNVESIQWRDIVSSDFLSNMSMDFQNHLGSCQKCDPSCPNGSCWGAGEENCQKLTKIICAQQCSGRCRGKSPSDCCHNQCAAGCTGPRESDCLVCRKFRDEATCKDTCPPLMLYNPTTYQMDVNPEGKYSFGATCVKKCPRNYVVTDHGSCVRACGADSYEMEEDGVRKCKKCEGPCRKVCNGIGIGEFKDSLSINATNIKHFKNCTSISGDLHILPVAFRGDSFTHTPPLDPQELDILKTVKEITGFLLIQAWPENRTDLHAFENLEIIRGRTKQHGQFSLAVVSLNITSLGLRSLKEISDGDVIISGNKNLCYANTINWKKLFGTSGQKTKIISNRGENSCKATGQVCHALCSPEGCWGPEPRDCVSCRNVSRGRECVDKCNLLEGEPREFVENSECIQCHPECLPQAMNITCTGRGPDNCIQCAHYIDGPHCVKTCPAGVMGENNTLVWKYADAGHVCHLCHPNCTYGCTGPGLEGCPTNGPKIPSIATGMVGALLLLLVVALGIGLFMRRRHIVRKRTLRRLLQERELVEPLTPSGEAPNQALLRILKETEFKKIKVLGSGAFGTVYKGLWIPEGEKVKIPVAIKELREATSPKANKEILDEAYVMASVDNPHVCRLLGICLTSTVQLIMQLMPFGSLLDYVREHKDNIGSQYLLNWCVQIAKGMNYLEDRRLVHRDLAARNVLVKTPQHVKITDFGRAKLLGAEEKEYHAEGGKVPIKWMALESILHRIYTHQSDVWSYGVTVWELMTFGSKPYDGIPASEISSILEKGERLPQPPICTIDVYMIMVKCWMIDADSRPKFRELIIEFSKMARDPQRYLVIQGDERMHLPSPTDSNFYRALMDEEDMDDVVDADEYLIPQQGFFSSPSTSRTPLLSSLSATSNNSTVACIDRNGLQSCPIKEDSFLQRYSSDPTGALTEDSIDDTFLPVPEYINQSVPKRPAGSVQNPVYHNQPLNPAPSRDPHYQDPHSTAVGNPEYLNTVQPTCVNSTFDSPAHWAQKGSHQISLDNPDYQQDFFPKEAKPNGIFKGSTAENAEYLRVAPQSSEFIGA
The test is described as follows: Enzymology experiment in vitro (HTRF/FRET kinase activity), L858R/T790M/C797S triple mutant EGFR. The conditions noted are these: HTRF KinEASE-TK, read-out: EGFR (L858R/T790M/C797S) IC50. The class given is biochemical. The essentials: as §1

T1 sequence (P00533 25-1210): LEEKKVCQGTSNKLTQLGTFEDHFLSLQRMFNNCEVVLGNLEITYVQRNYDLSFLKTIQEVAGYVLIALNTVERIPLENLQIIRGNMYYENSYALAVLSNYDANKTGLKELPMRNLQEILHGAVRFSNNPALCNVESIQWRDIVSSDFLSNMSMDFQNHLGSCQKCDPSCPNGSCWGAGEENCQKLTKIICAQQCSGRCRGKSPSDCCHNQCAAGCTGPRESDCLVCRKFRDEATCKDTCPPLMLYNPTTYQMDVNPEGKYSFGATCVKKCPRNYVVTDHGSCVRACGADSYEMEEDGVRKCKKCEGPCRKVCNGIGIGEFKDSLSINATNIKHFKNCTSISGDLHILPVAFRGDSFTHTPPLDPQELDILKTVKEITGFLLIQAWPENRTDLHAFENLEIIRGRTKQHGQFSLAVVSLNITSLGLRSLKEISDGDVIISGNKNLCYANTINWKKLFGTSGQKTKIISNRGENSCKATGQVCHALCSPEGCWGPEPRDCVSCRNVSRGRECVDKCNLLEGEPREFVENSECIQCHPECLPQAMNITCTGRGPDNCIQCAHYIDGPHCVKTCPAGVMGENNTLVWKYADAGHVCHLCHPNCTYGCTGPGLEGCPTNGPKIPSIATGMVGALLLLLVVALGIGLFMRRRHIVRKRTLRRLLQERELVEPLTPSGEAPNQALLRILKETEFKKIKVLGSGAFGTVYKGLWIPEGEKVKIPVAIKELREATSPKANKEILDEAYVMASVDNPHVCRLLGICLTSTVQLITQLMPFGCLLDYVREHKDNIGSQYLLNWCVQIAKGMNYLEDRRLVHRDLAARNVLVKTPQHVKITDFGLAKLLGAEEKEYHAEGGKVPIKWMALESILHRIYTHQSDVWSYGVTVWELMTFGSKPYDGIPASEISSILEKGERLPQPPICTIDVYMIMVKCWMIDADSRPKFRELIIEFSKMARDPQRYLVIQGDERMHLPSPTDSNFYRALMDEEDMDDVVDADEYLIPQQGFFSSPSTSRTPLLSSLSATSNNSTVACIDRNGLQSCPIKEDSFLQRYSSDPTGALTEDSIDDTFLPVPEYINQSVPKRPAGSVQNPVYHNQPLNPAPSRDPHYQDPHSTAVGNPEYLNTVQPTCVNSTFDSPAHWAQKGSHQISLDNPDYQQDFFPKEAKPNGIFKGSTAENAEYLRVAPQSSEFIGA

In the case of `COc1cc(N2CCOCC2)c(-c2ccsc2)cc1Nc1ncc(Br)c(Nc2ccc3nccnc3c2P(C)(C)=O)n1` [compound 86], the GI50 in test [1] amounted to 87.8 nM; in test [2], 136 nM. In addition, the values for the IC50 (at wild-type EGFR; in test [3]; in test [4]) were 345 nM, 3060 nM and 15.6 nM, respectively.
The like results for `CN1CCC2(CC1)CCN(c1nc(OCC(F)(F)F)c(Nc3ncc(Br)c(Nc4ccc5nccnc5c4P(C)(C)=O)n3)cc1-c1cnn(C)c1)CC2` [compound 87] were, in that order, 5.89 nM, 14.2 nM, 3.47 nM, 178 nM and 0.35 nM.
The like results for `CCN1CCN(c2cc(OC)c(Nc3ncc(Br)c(Nc4ccc5nccnc5c4P(C)(C)=O)n3)cc2-c2cnn(C)c2)CC1` [compound 89] were, in that order, 2.33 nM, 4.16 nM, 2.11 nM, 40.9 nM and 0.11 nM.
The like results for `COCCN1CCN(c2cc(OC)c(Nc3ncc(Br)c(Nc4ccc5nccnc5c4P(C)(C)=O)n3)cc2-c2cnn(C)c2)CC1` [compound 92] were, in that order, 0.54 nM, 2.85 nM, 2.34 nM, 31.8 nM and 0.03 nM.
For the compound `COc1c(Nc2ncc(Br)c(Nc3ccc4nccnc4c3P(C)(C)=O)n2)cc(-c2cnn(C)c2)c(N2CCC(N3CCN(C)CC3)CC2)c1F` [compound 93], the values for the GI50 in test [1] and in test [2] were 12.5 nM and 27 nM, respectively. Besides, the IC50 at wild-type EGFR turned out to be 23.1 nM; in test [3], 178 nM; in test [4] it was 0.18 nM.
On to `COc1cc(N2CCS(=O)(=O)CC2)c(-c2cnn(C)c2)cc1Nc1ncc(Br)c(Nc2ccc3nccnc3c2P(C)(C)=O)n1` [compound 94], for which the GI50 in test [1] is 6.99 nM; in test [2], 28.8 nM. Besides, the IC50 stood at 2.78 nM on wild-type EGFR, 168 nM in test [3] and 0.15 nM in test [4].
For `COc1cc(N2CCOCC2)c(-c2cn[nH]c2)cc1Nc1ncc(C)c(Nc2ccc3nccnc3c2P(C)(C)=O)n1` [compound 97], in that order: 6.64 nM, 25.5 nM, 1.02 nM, 406 nM and 0.15 nM.
For the compound `COc1cc(N2CCC(N3CCN(C)CC3)CC2)c(-c2cscn2)cc1Nc1ncc(Br)c(Nc2ccc3nccnc3c2P(C)(C)=O)n1` [compound 98], the GI50 came to 11 nM in test [1] and 27.8 nM in test [2]. For the same compound, the IC50 came to 16.2 nM on wild-type EGFR, 177 nM in test [3] and 0.82 nM in test [4].
For `COc1cc(N2CCC3(CCN(C)CC3)CC2)c(-c2cnn(C)c2)cc1Nc1ncc(Br)c(Nc2ccc3nccnc3c2P(C)(C)=O)n1` [compound 101], in that order: 2.87 nM, 4.53 nM, 0.41 nM, 46.1 nM and 0.18 nM.
The like results for `COc1cc(N2CCN(C3CC3)CC2)c(-c2cnn(C)c2)cc1Nc1ncc(Br)c(Nc2ccc3nccnc3c2P(C)(C)=O)n1` [compound 102] were, in that order, 0.76 nM, 2.02 nM, 1.49 nM, 108 nM and 0.23 nM.
For `COc1cc(N2CCN(CCF)CC2)c(-c2cnn(C)c2)cc1Nc1ncc(Br)c(Nc2ccc3nccnc3c2P(C)(C)=O)n1` [compound 103], in that order: 0.51 nM, 5.02 nM, 1.57 nM, 152 nM and 0.13 nM.
In the case of `COc1cc(N2CCOC[C@H]2C)c(-c2cnn(C)c2)cc1Nc1ncc(Br)c(Nc2ccc3nccnc3c2P(C)(C)=O)n1` [compound 104], the GI50 was 4.07 nM in test [1] and 17.7 nM in test [2]. Moreover, the IC50 on wild-type EGFR stood at 27.2 nM; in test [3] it was 192 nM; in test [4] it was 0.95 nM.
